These results are taken from patent US20240239786A1, “COMPOSITIONS AND METHODS FOR THE TREATMENT AND PREVENTION OF CANCER” (Yale University, priority 2021, published 2024).

In data set [1] the test system is PD-L1. Briefly: PD-L1 level in BRCA-wild type PEO4 cells. Format: cell-based. The text has this: FIG. 21A depicts representative effects of DB4 and/or olaparib on BRCA-wild type PEO4 cells after 24, 48, and 72 hr. FIG. 21B depicts representative effects of DB4 and/or olaparib on the level of DSBs in BRCA-wild type PEO4 cells. FIG. 21C depicts representative effects of DB4 and/or olaparib on the level of PD-L1 protein in BRCA-wild type PEO4 cells.
FIG. 22 depicts representative effects of DB4 and/or olaparib on PD-L1-positive populations of BRCA-mutated PEO1 and BRCA-wild type PEO4 cells. DB4 and/or olaparib increased the PD-L1-positive population of BRCA-wild type PEO4 cells in the presence of IFNγ.

A short description of data set [2]: Chemical stability of DB4 in culture medium by mass spectrometry. It is filed as physicochemical. The conditions noted are these: 50 μM, 37° C., 72 hr vs 0 hr. How it is done:
DB4 remained mostly active and intact after 72 hr in the culture medium. The dose response curve of DB4 in DNA synthesis inhibition in PEO4 cells was generated as determined by EdU flow cytometric analysis. […] PEO4 cells were treated with these media for 24 hr. The level of DNA synthesis inhibition was determined to interpolate and calculate % DB4 remaining compared with the control at 0 hr. FIG. 5B depicts representative results for remaining DB4 after DB4 (MW=496.1) was added to the culture medium at 50 μM for 0 hr, 24 hr, 48 hr, or 72 hr at 37° C. FIG. 5C depicts representative mass spectrum obtained from mass spectrometry that was run to detect the level of the 496.13 ion at 0 hr. FIG. 5D depicts representative mass spectrum obtained from mass spectrometry that was run to detect the level of the 496.13 ion at 72 hr.
To ensure that DB4 remained chemically stable, the time course study was performed by determining the potency of DB4 following a pre-incubation in the cell-free medium at 37° C. for up to 72 hr. Cells were treated for 24 hr with the medium containing pre-incubated DB4 and DNA synthesis was determined by the EdU incorporation assay.
DB4 was dissolved in DMEM medium at 50 μM and incubated for 0 hr, 24 hr, 48 hr, and 72 hr at 37° C. and flash frozen after incubation. […]

Data set [3] has as its system CDK2 activity. Put plainly: Western blot time course of CDK2 activity in PEO4 cells. It is filed as cell-based. As to conditions: for level of phosphorylated histone H1 (readout of CDK2 activity) / levels of cyclin A2 and CDK2 phosphorylation: 30 μM DB4 or 1 μM triapine; for levels of cyclin A2 and CDK2 phosphorylation: 24 hr. How it is done: PEO1 cells were treated with 30 μM DB4 or 1 μM triapine for indicated times, pulsed with EdU for 1 hr and subsequently assayed for DNA synthesis inhibition as described in FIG. 2B. The bivariate plots of Alexa Fluor 488 and PE-Cy5 were gated to determine % S phase cells. […] PEO4 cells were treated with 30 μM DB4 or 1 μM triapine for indicated times, pulsed with EdU for 1 hr and subsequently assayed for DNA synthesis inhibition as described in FIG. 2B. The bivariate plots of Alexa Fluor 488 and PE-Cy5 were gated to determine % S phase cells. […] The bivariate plots of Alexa Fluor 488 and PE-Cy5 shown in FIG. 6A and FIG. 6B were gated to determine % cells in G1, S, and G2/M phases. […] PEO4 cells were treated with 30 μM DB4 or 1 μM triapine for various time periods and subjected to western blot analysis for the levels of cyclin A2, p-CDK1/2, p-H1, p-Chk1, and HSC70. The HSC70 protein level was used as a loading control. Cropped gel images of protein bands are presented. Cyclin A2, p-CDK1/2, and p-H1 bands were from re-probing the same blot. p-Chk1 and HSC70 bands were from re-probing the same duplicated blot. […] The CDK2 activity is expressed by the percentage of the p-HI levels relative to that of the 0 hr control is shown. […] Protein was analyzed by western blotting for p-Chk1, p-ATR, p-RPA32, γH2AX, and HSC70. Cropped gel images of protein bands are presented. All protein bands were from re-probing the same blot. DSB end resection is assessed by the level of p-RPA32.
Additional studies focused on determining how DB4 inhibited CDK2 activity in comparison with triapine. […] In contrast, triapine increased the levels of cyclin A2 and CDK2 phosphorylation evidently at 24 hr. Because CDK2 phosphorylation is inhibitory, the level of phosphorylated histone H1, a substrate of CDK2, was determined as a readout of CDK2 activity (Lin Z P et al., 2014, Molecular Cancer Res, 12:381-393) to reconcile this discrepancy. […] The kinetics of CDK2 activity somewhat resembled to the level of DNA synthesis caused by DB4 and triapine.
The methodology was described previously (Lin Z P et al., 2014, Molecular Cancer Res, 12:381-393; Ratner E S et al., 2016, Br J Cancer, 114:777-786). The anti-HSC70 antibody was purchased from Santa Cruz (Santa Cruz, CA). Anti-cyclin A2, anti-phospho-ATR (Thr-1981), anti-phospho-Chk1 (Ser-345), anti-phospho-CDK1/2 (Tyr-15), and anti-Y-H2AX (Ser-139) antibodies were from Cell Signaling (Danvers, MA). Anti-phospho-RPA32 (S4/S8) and anti-BRCA2 antibodies were from Bethyl Laboratories (Montgomery, TX). Anti-phospho-histone H1 antibody was from Millipore-Sigma (Burlington, MA). To avoid the cross-reaction of secondary antibodies with previously probed primary antibodies, blots were stripped and re-probed with next primary antibodies raised in a different species in an alternate fashion. All images were acquired and processed using the G: BOX gel documentation system and the GeneSnap software (Syngene, Frederick, MD). Brightness and contrast of images were applied equally across the entire gel/blot image and to controls. Images of protein bands were cropped and only brightness-adjusted using the PowerPoint software (Microsoft, Redmond, WA). Quantification of the protein band intensity was performed using the ImageJ software (NIH, Bethesda, MD).
(In general: A western blot detects proteins with antibodies after separation by electrophoresis.)

In the case of `C=CCn1c(SCc2cccc(Cl)c2)nnc1C1CCN(Cc2nc3ccccc3s2)CC1` [DB4, 2-[(4-{4-allyl-5-[(3-chlorobenzyl)thio]-4H-1,2,4-triazol-3-yl}-1-piperidinyl)methyl]-1,3-benzothiazole], the PD-L1 protein level result in data set [1] (BRCA-wild type EOC cells) is “up-regulation of PD-L1 protein”. The PD-L1-positive population result in data set [1] (PEO4 cells in the presence of IFNγ) is on record as “significantly increased”. For the same compound, the “level of DB4 by mass spectrometry” value in data set [2] was “remained similar to that of the 0 hr control”. Further, in data set [3], the “level of phosphorylated histone H1 (readout of CDK2 activity)” value is on record as “down-regulation of phosphorylated histone H1 at 24 hr”; the “levels of cyclin A2 and CDK2 phosphorylation” value is “downregulated”. For the same compound, in data set [3] (time course, drug alone), the Chk1 phosphorylation entry was “did not induced Chk1 phosphorylation”.

On to `NC(=S)NN=Cc1ncccc1N` [triapine, 3-aminopyridine-2-carboxaldehyde-thiosemicarbazone, reference compound], for which, in data set [3], the “level of phosphorylated histone H1 (readout of CDK2 activity)” value is recorded as “reduced the level of phosphorylated histone H1 earlier starting at 3 hr”; the “levels of cyclin A2 and CDK2 phosphorylation” value is given as “increased”.
